Several values for one entry are separate records, joined by “and”; a condition that tells them apart may be missing. Equal entries are not always repeated.
What was measured:
[1] = tested on: mouse mast cell tumor P815 cells; assay: In vivo efficacy in DBA/2 mouse model of subcutaneous homologous transplantation of P815 cells; settings: for Tumor volume (mm^3): average ±SEM; for TGI: Day 8, vs vehicle control
Text: Test sample: the dimaleate of the compound of formula (I) of the present application (content: 99.7%), and Toceranib phosphate (content: 98.2%, commercially available), the concentration and dosage of administration of the test sample prepared in the following implementation are all calculated in terms of free alkali.
Test animal: the species is mouse; the strain is DBA/2 mouse; the age is 6-8 weeks old, and the weight is 19-24 g; and the gender is female.
Experimental methods and steps: mouse mast cell tumor P815 cells (ATCC-TIB-64) were adherent and cultured in vitro. The culture conditions were DMEM medium, 10 vol% fetal bovine serum, 1 vol% double antibody, and cultured in a cell incubator at 37 °C with 5% CO2. Conventional digestion treatment and passage were carried out twice a week with trypsin-EDTA. When the cell saturation reached 80-90% and the quantity satisfied the requirements, the cells were collected, counted and inoculated.
0.1 mL of PBS containing 5×10^5 P815 cells was subcutaneously inoculated into the subcutaneous area of the right forelimb axilla of each mouse. At day 8 after cell inoculation, when the average tumor volume reached 100 mm^3, group administration was started. The experiment was grouped into a negative control group (without an active ingredient), an administration group, and a positive control group (with the active ingredient Toceranib), with 8 mice in each group. The negative control (vehicle), the dimaleate of the compound of formula (I), and Toceranib phosphate were administered orally once daily for an 8-day administration period. Health status and mortality of animals were monitored every day. Routine examinations included observing the effects of tumor growth and drug treatment on daily behavioral performance of animals, such as behavioral activities, food and water intake (only visually), weight changes (measuring weight twice a week), appearance signs or other abnormal conditions. Table 1. Preparation methods of the test samples
Table 2. Grouping of experimental animals and administration protocols
The experimental indicators were to examine whether the tumor growth was inhibited, delayed or cured. The diameter of the tumor was measured with a vernier caliper. The calculation formula for tumor volume was: V = 0.5a × b^2 , [formula] wherein a and b represented the long diameter and the short diameter of the tumor, respectively. The anti-tumor efficacy of the compound was determined by TGI (%). TGI (%) reflects the rate of tumor growth inhibition. Calculation of TGI (%): TGI (%) = [1-(Average tumor volume at the end of administration in a certain treatment group - Average tumor volume at the start of administration in this treatment group) / (Average tumor volume at the end of treatment in the vehicle control group - Average tumor volume at the start of treatment in the vehicle control group)] ×100%.

[2] = tested on: mouse mast cell tumor cells P815 cells (ATCC-TIB-64); assay: MTT assay (thiazolyl blue colorimetric assay), inhibition of tumor cell proliferation; assay type: cell-based
Experimental: Test sample: the dimaleate of the compound of formula (I) of the present application.
The inhibition effect of the dimaleate of the compound of formula (I) on the growth of mouse mast cell tumor cells P815 cells (ATCC-TIB-64) was detected by MTT assay (thiazolyl blue colorimetric assay), and IC50 (half inhibitory concentration) was calculated and obtained.

[3] = Adverse reactions and safety in dogs with mast cell tumors under treatment (VCOG-CTCAE); assay type: in vivo
Experimental: (§1) Since May 2021, a total of 14 dogs with mast cell tumors have been collected and enrolled for treatment with a dimaleate of the compound of formula (I). Table 4: Clinical staging criteria for canine cutaneous mast cell tumors
(§2) The affected dogs with mast cell tumor were administered with the drug of the dimaleate of the compound of formula (I) at a dose of 2.0 mg/kg to 3.25 mg/kg (all doses were calculated based on free base, the same below), orally once every other day. For affected dogs with assessable solid tumors, baseline assessment was performed before the first trial medication. After the administration of the first trial medication, mass measurement and blood routine examination were performed every 2 weeks, and blood biochemical examination and imaging examination were performed every 4 weeks to evaluate the response to tumor treatment until disease progression, intolerable drug withdrawal due to treatment-related side effects, or death of enrolled dogs, and to evaluate the efficacy and safety of the compound of formula (I) in the treatment of a canine mast cell tumor and a breast tumor. The primary observation endpoints: objective response rate (ORR), disease control rate (DCR), progression-free survival (PFS), and overall survival (OS); complete response (CR), partial response (PR), stable disease (SD), and progressive disease (PD).
(Adverse event assessment criteria refer to VCOG-CTCAE (Veterinary cooperative oncology group-common terminology criteria for adverse events (VCOG-CTCAE) following chemotherapy or biological antineoplastic therapy in dogs and cats v1.1. Vet Comp Oncol. 2016)).

canine mast cell tumor = assay: Anti-tumor effect in dogs with mast cell tumors (clinical cases); assay type: in vivo
Experimental: as §1, §2

[4] = 14 dogs, 2.0 mg/kg to 3.25 mg/kg orally once every other day, n=4

## Cc1[nH]c(/C=C2\C(=O)Nc3ccc(F)cc32)c(C)c1C(=O)NCCN1CCCC1 [Toceranib, reference compound]
[1]; Day 0 after administration, 40mg/kg PO QD
  Tumor volume (mm^3): 100±4 mm^3
[1]; Day 2 after administration, 40mg/kg PO QD
  Tumor volume (mm^3): 127±6 mm^3
[1]; Day 4 after administration, 40mg/kg PO QD
  Tumor volume (mm^3): 231±14 mm^3
[1]; Day 6 after administration, 40mg/kg PO QD
  Tumor volume (mm^3): 299±15 mm^3
[1]; 40 mg/kg PO QD, p < 0.001
  TGI: 43.38%
[1]; Day 8 after administration, 40mg/kg PO QD, 40 mg/kg
  Tumor volume (mm^3): 510 mm^3 and 510±38 mm^3

## Cc1[nH]c(/C=C2\C(=O)Nc3ccc(F)cc32)c(C)c1NC(=O)CCN1CCN(C)CC1 [dimaleate of the compound of formula (I), N-(5-((Z)-(5-fluoro-2-carbonylindole-3-ylidene)methyl)-2,4-dimethyl-1H-pyrrol-3-yl)-3-(4-methylpiperazin-1-yl) propanamide]
[2]
  IC50: 0.474 µM
[3]; 14 dogs, 2.0 mg/kg to 3.25 mg/kg orally once every other day, n=1, occasionally
  blood in urine (treatment-related clinical adverse reaction): 7.1%
[3]; 14 dogs, 2.0 mg/kg to 3.25 mg/kg orally once every other day, n=3
  vomiting (treatment-related clinical adverse reaction): 21.4%
[3]; [4]
  blood in stool (treatment-related clinical adverse reaction): 28.6%
  decreased appetite (treatment-related clinical adverse reaction): 28.6%
[3]; 14 dogs, 2.0 mg/kg to 3.25 mg/kg orally once every other day, n=9
  diarrhea (treatment-related clinical adverse reaction): 64.3%
[3]; 14 dogs, VCOG-CTCAE v1.1
  grade 3 or 4 adverse reactions: No grade 3 or 4 adverse reactions were observed
[3]; Case 2 Tibetan mastiff, 2.84 mg/kg, June 21
  blood routine and serum biochemistry: no obvious abnormality was seen compared with the baseline
[3]; Case 4 Golden Retriever, stage I, no c-kit mutation, 2.4 mg/kg from January 2
  adverse effects after administration: no significant adverse effects were observed
[3]; Case 4 Golden Retriever, 2.3 mg/kg from April 10 and from June 6
  adverse reactions after medication: no obvious adverse reactions occurred after medication
[3]; Case 4 Golden Retriever, continued at 2.4mg/kg from February 13
  adverse reactions after taking the medicine: symptoms of soft stool and diarrhea occurred
[3]; Case 4 Golden Retriever, re-examined February 13, April 10, June 6 (August 7: blood routine only)
  blood routine and serum biochemistry: no obvious abnormalities were found
[3]; Case 5 Golden Retriever, 2.25 mg/kg from October 15
  adverse reactions after medication: no obvious adverse reactions occurred after medication
[3]; Case 5 Golden Retriever, 2.75 mg/kg, reported at October 15
  adverse reactions during treatment: Thin and watery stools occurred during a period
[3]; Case 5 Golden Retriever, 3.25 mg/kg from September 3
  adverse reactions after dosing: soft stools appeared once after dosing
[3]; Case 5 Golden Retriever, dosage adjusted to 2.75 mg/kg on September 7
  adverse reactions after dosing: no significant adverse reactions after dosing
[1]; Day 0 after administration, 20mg/kg PO QD
  Tumor volume (mm^3): 100±4 mm^3
[1]; Day 2 after administration, 20mg/kg PO QD
  Tumor volume (mm^3): 141±22 mm^3
[1]; Day 4 after administration, 20mg/kg PO QD
  Tumor volume (mm^3): 244±35 mm^3
[1]; Day 6 after administration, 20mg/kg PO QD
  Tumor volume (mm^3): 319±55 mm^3
[1]; 20 mg/kg PO QD, p = 0.003
  TGI: 47.25%
[1]; Day 8 after administration, 20mg/kg PO QD, listed as Compound of formula (I), 20 mg/kg
  Tumor volume (mm^3): 483 ±93 mm^3
[1]; Day 8 after administration, 20mg/kg PO QD, listed as compound of formula (I), 20 mg/kg
  Tumor volume (mm^3): 483 mm^3
Canine mast cell tumor; Case 1 Golden Retriever, 3.07 mg/kg, 14 days (October 17)
  mass decreased compared with the baseline: 12%
Canine mast cell tumor; Case 1 Golden Retriever, after excision, 2.63 mg/kg, postoperative days 47, 82, 117 and 145
  recurrence of the mass: no recurrence of the mass was seen on the skin
Canine mast cell tumor; Case 1 Golden Retriever, as of March 28, 2022, 66 doses
  survival period: greater than 176 days
Canine mast cell tumor; Case 2 Tibetan mastiff, 2.84 mg/kg, died September 18, 2021
  total survival period: 117 days
Canine mast cell tumor; Case 3 Labrador, 2.42 mg/kg, after 14 days, non-target lesion
  mass on the cephalic side of the vulva: significantly reduced
Canine mast cell tumor; Case 3 Labrador, as of April 17, 2022, medication 51 times
  survival period: greater than 126 days
Canine mast cell tumor; Case 3 Labrador, day 42 and day 77 of treatment, non-target lesion
  enlargement of the mass on the cephalic side of the vulva: No enlargement
Canine mast cell tumor; Case 4 Golden Retriever, 2.3-2.4 mg/kg, still under therapy
  survival period: greater than 259 days
Canine mast cell tumor; Case 4 Golden Retriever, re-examined August 7
  Nasal ultrasound: subcutaneous mass accompanied by invasive changes in adjacent turbinate bone
Canine mast cell tumor; Case 4 Golden Retriever, re-examined June 6
  Nasal ultrasound: subcutaneous mass is suspected of invading the nasal cavity

— patent EP4663191A1, “USE OF TYROSINE KINASE INHIBITOR” (Qilu Animal Health Products Co., Ltd., priority 2023, dated 2024)
